Assay results taken from ChEMBL document CHEMBL3797052 (Eur J Med Chem, 2016).

Test system: MDA-MB-468
Assay: Antiproliferative activity against human MDA-MB-468 cells assessed as cell growth at 10^-6 M after 48 hrs by sulforhodamine B assay
Type: functional
Conditions: MDA-MB-468, 48 h, read-out: Activity

Row | Structure (SMILES) | growth at 1 µM
1 | CNC(=O)c1cc(Oc2ccc3nc(NC(=O)Nc4cc(C(F)(F)F)cc(C(F)(F)F)c4)sc3c2)ccn1 | 22%

Test system: NCI-H23
Assay: Antiproliferative activity against human NCI-H23 cells assessed as cell growth at 10^-8 M after 48 hrs by sulforhodamine B assay
Type: functional
Conditions: NCI-H23, 48 h, read-out: Activity

Row | Structure (SMILES) | growth at 0.01 µM
2 | CNC(=O)c1cc(Oc2ccc3nc(NC(=O)Nc4cc(C(F)(F)F)cc(C(F)(F)F)c4)sc3c2)ccn1 | 93%

Test system: not listed separately
Assay: Antiproliferative activity against human SF295 cells assessed as cell growth at 10^-8 M after 48 hrs by sulforhodamine B assay
Type: functional
Conditions: SF-295, 48 h, read-out: Activity

Row | Structure (SMILES) | growth at 0.01 µM
3 | CNC(=O)c1cc(Oc2ccc3nc(NC(=O)Nc4cc(C(F)(F)F)cc(C(F)(F)F)c4)sc3c2)ccn1 | 87%

Test system: not listed separately
Assay: Antiproliferative activity against human OVCAR4 cells assessed as cell growth at 10^-4 M after 48 hrs by sulforhodamine B assay
Type: functional
Conditions: OVCAR-4, 48 h, read-out: Activity

Row | Structure (SMILES) | growth at 100 µM
4 | CNC(=O)c1cc(Oc2ccc3nc(NC(=O)Nc4cc(C(F)(F)F)cc(C(F)(F)F)c4)sc3c2)ccn1 | -57%

Test system: not listed separately
Assay: Antiproliferative activity against human UACC257 cells assessed as cell growth at 10^-7 M after 48 hrs by sulforhodamine B assay
Type: functional
Conditions: UACC-257, 48 h, read-out: Activity

Row | Structure (SMILES) | growth at 0.1 µM
5 | CNC(=O)c1cc(Oc2ccc3nc(NC(=O)Nc4cc(C(F)(F)F)cc(C(F)(F)F)c4)sc3c2)ccn1 | 114%

Test system: not listed separately
Assay: Antiproliferative activity against human SKOV3 cells assessed as cell growth at 10^-8 M after 48 hrs by sulforhodamine B assay
Type: functional
Conditions: SK-OV-3, 48 h, read-out: Activity

Row | Structure (SMILES) | growth at 0.01 µM
6 | CNC(=O)c1cc(Oc2ccc3nc(NC(=O)Nc4cc(C(F)(F)F)cc(C(F)(F)F)c4)sc3c2)ccn1 | 87%

Test system: not listed separately
Assay: Antiproliferative activity against human SW620 cells assessed as cell growth at 10^-4 M after 48 hrs by sulforhodamine B assay
Type: functional
Conditions: SW-620, 48 h, read-out: Activity

Row | Structure (SMILES) | growth at 100 µM
7 | CNC(=O)c1cc(Oc2ccc3nc(NC(=O)Nc4cc(C(F)(F)F)cc(C(F)(F)F)c4)sc3c2)ccn1 | -71%

Test system: not listed separately
Assay: Antiproliferative activity against human HOP92 cells assessed as cell growth at 10^-7 M after 48 hrs by sulforhodamine B assay
Type: functional
Conditions: HOP-92, 48 h, read-out: Activity

Row | Structure (SMILES) | growth at 0.1 µM
8 | CNC(=O)c1cc(Oc2ccc3nc(NC(=O)Nc4cc(C(F)(F)F)cc(C(F)(F)F)c4)sc3c2)ccn1 | 98%

Test system: not listed separately
Assay: Antiproliferative activity against human HCC2998 cells assessed as cell growth at 10^-6 M after 48 hrs by sulforhodamine B assay
Type: functional
Conditions: HCC 2998, 48 h, read-out: Activity

Row | Structure (SMILES) | growth at 1 µM
9 | CNC(=O)c1cc(Oc2ccc3nc(NC(=O)Nc4cc(C(F)(F)F)cc(C(F)(F)F)c4)sc3c2)ccn1 | 66%

Test system: not listed separately
Assay: Antiproliferative activity against human UACC62 cells assessed as growth inhibition after 48 hrs by sulforhodamine B assay
Type: functional
Conditions: UACC-62, 48 h

Row | Structure (SMILES) | GI50 | TGI
10 | CNC(=O)c1cc(Oc2ccc3nc(NC(=O)Nc4cc(C(F)(F)F)cc(C(F)(F)F)c4)sc3c2)ccn1 | 583 nM | 2100 nM

Same assay, conditions: UACC-62, 48 h, read-out: LC50 (the source's name)

Row | Structure (SMILES) | CC50
11 | CNC(=O)c1cc(Oc2ccc3nc(NC(=O)Nc4cc(C(F)(F)F)cc(C(F)(F)F)c4)sc3c2)ccn1 | 5770 nM

Test system: MDA-MB-468
Assay: Antiproliferative activity against human MDA-MB-468 cells assessed as cell growth at 10^-4 M after 48 hrs by sulforhodamine B assay
Type: functional
Conditions: MDA-MB-468, 48 h, read-out: Activity

Row | Structure (SMILES) | growth at 100 µM
12 | CNC(=O)c1cc(Oc2ccc3nc(NC(=O)Nc4cc(C(F)(F)F)cc(C(F)(F)F)c4)sc3c2)ccn1 | -75%

Test system: ACHN
Assay: Antiproliferative activity against human ACHN cells assessed as cell growth at 10^-7 M after 48 hrs by sulforhodamine B assay
Type: functional
Conditions: read-out: Activity

Row | Structure (SMILES) | growth at 0.1 µM
13 | CNC(=O)c1cc(Oc2ccc3nc(NC(=O)Nc4cc(C(F)(F)F)cc(C(F)(F)F)c4)sc3c2)ccn1 | 99%

Test system: not listed separately
Assay: Antiproliferative activity against human BT549 cells assessed as cell growth at 10^-6 M after 48 hrs by sulforhodamine B assay
Type: functional
Conditions: BT-549, 48 h, read-out: Activity

Row | Structure (SMILES) | growth at 1 µM
14 | CNC(=O)c1cc(Oc2ccc3nc(NC(=O)Nc4cc(C(F)(F)F)cc(C(F)(F)F)c4)sc3c2)ccn1 | 67%

Test system: K562
Assay: Antiproliferative activity against human K562 cells assessed as cell growth at 10^-6 M after 48 hrs by sulforhodamine B assay
Type: functional
Conditions: K562, 48 h, read-out: Activity

Row | Structure (SMILES) | growth at 1 µM
15 | CNC(=O)c1cc(Oc2ccc3nc(NC(=O)Nc4cc(C(F)(F)F)cc(C(F)(F)F)c4)sc3c2)ccn1 | 44%

Test system: not listed separately
Assay: Antiproliferative activity against human HCT15 cells assessed as cell growth at 10^-4 M after 48 hrs by sulforhodamine B assay
Type: functional
Conditions: HCT-15, 48 h, read-out: Activity

Row | Structure (SMILES) | growth at 100 µM
16 | CNC(=O)c1cc(Oc2ccc3nc(NC(=O)Nc4cc(C(F)(F)F)cc(C(F)(F)F)c4)sc3c2)ccn1 | -67%

Biological target: CYP2D6 (Homo sapiens, UniProt P10635)
Sequence (P10635 whole entry): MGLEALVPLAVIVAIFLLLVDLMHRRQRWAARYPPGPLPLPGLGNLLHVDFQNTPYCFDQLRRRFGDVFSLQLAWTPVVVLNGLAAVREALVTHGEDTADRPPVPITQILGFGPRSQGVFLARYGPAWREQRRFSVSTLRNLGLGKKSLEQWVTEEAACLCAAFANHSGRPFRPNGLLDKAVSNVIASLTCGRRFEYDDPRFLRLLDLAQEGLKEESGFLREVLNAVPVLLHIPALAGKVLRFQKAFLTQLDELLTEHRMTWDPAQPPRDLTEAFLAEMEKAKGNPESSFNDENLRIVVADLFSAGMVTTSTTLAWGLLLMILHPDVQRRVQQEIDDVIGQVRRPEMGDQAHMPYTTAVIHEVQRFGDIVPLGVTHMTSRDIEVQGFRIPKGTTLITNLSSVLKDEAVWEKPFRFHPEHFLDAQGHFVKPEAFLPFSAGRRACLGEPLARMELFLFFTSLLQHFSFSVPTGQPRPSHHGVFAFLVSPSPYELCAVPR
Assay: Inhibition of recombinant human CYP2D6 assessed as remaining enzyme activity using CYP2D6 blue as substrate at 10 uM after 5 mins in presence of NADP by fluorescence plate reader analysis
Type: ADME
Conditions: recombinant human CYP2D6, probe CYP2D6 blue, read-out: Activity

Row | Structure (SMILES) | activity at 5 min, 10 µM
17 | CNC(=O)c1cc(Oc2ccc3nc(NC(=O)Nc4cc(C(F)(F)F)cc(C(F)(F)F)c4)sc3c2)ccn1 | 91.5%

Test system: not listed separately
Assay: Antiproliferative activity against human SF539 cells assessed as cell growth at 10^-6 M after 48 hrs by sulforhodamine B assay
Type: functional
Conditions: SF-539, 48 h, read-out: Activity

Row | Structure (SMILES) | growth at 1 µM
18 | CNC(=O)c1cc(Oc2ccc3nc(NC(=O)Nc4cc(C(F)(F)F)cc(C(F)(F)F)c4)sc3c2)ccn1 | 63%

Test system: not listed separately
Assay: Antiproliferative activity against human UO31 cells assessed as cell growth at 10^-6 M after 48 hrs by sulforhodamine B assay
Type: functional
Conditions: UO-31, 48 h, read-out: Activity

Row | Structure (SMILES) | growth at 1 µM
19 | CNC(=O)c1cc(Oc2ccc3nc(NC(=O)Nc4cc(C(F)(F)F)cc(C(F)(F)F)c4)sc3c2)ccn1 | 65%

Test system: not listed separately
Assay: Antiproliferative activity against human COLO205 cells assessed as cell growth at 10^-6 M after 48 hrs by sulforhodamine B assay
Type: functional
Conditions: COLO 205, 48 h, read-out: Activity

Row | Structure (SMILES) | growth at 1 µM
20 | CNC(=O)c1cc(Oc2ccc3nc(NC(=O)Nc4cc(C(F)(F)F)cc(C(F)(F)F)c4)sc3c2)ccn1 | 46%

Test system: SR
Assay: Antiproliferative activity against human SR cells assessed as growth inhibition after 48 hrs by sulforhodamine B assay
Type: functional
Conditions: not given

Row | Structure (SMILES) | GI50 | LC50 | TGI
21 | CNC(=O)c1cc(Oc2ccc3nc(NC(=O)Nc4cc(C(F)(F)F)cc(C(F)(F)F)c4)sc3c2)ccn1 | 514 nM | 31600 nM | 2600 nM

Test system: not listed separately
Assay: Antiproliferative activity against human COLO205 cells assessed as cell growth at 10^-4 M after 48 hrs by sulforhodamine B assay
Type: functional
Conditions: COLO 205, 48 h, read-out: Activity

Row | Structure (SMILES) | growth at 100 µM
22 | CNC(=O)c1cc(Oc2ccc3nc(NC(=O)Nc4cc(C(F)(F)F)cc(C(F)(F)F)c4)sc3c2)ccn1 | -65%

Test system: A498
Assay: Antiproliferative activity against human A498 cells assessed as cell growth at 10^-6 M after 48 hrs by sulforhodamine B assay
Type: functional
Conditions: A498, 48 h, read-out: Activity

Row | Structure (SMILES) | growth at 1 µM
23 | CNC(=O)c1cc(Oc2ccc3nc(NC(=O)Nc4cc(C(F)(F)F)cc(C(F)(F)F)c4)sc3c2)ccn1 | 51%

Biological target: CYP3A4 (Homo sapiens, UniProt P08684)
Sequence (P08684 whole entry): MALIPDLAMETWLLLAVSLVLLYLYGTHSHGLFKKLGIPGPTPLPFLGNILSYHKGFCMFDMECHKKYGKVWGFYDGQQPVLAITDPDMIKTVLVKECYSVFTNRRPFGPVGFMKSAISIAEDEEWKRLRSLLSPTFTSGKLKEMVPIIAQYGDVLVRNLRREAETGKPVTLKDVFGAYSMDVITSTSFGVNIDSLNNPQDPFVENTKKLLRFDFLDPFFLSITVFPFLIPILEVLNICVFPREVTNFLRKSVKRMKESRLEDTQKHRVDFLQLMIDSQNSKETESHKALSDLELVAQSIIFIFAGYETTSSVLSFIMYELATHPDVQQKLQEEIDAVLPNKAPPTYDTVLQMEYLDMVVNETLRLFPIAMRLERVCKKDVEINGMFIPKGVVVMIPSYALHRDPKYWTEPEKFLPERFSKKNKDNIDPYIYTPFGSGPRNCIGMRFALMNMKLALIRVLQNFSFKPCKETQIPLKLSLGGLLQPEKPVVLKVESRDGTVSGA
Assay: Inhibition of recombinant human CYP3A4 assessed as remaining enzyme activity using CYP3A4 blue as substrate at 10 uM after 5 mins in presence of NADP by fluorescence plate reader analysis
Type: ADME
Conditions: recombinant human CYP3A4, probe CYP3A4 blue, read-out: Activity

Row | Structure (SMILES) | activity at 5 min, 10 µM
24 | CNC(=O)c1cc(Oc2ccc3nc(NC(=O)Nc4cc(C(F)(F)F)cc(C(F)(F)F)c4)sc3c2)ccn1 | 50.6%

Test system: not listed separately
Assay: Antiproliferative activity against human IGROV1 cells assessed as cell growth at 10^-6 M after 48 hrs by sulforhodamine B assay
Type: functional
Conditions: IGROV-1, 48 h, read-out: Activity

Row | Structure (SMILES) | growth at 1 µM
25 | CNC(=O)c1cc(Oc2ccc3nc(NC(=O)Nc4cc(C(F)(F)F)cc(C(F)(F)F)c4)sc3c2)ccn1 | 62%

Test system: MCF7
Assay: Antiproliferative activity against human MCF7 cells assessed as cell growth at 10^-7 M after 48 hrs by sulforhodamine B assay
Type: functional
Conditions: MCF7, 48 h, read-out: Activity

Row | Structure (SMILES) | growth at 0.1 µM
26 | CNC(=O)c1cc(Oc2ccc3nc(NC(=O)Nc4cc(C(F)(F)F)cc(C(F)(F)F)c4)sc3c2)ccn1 | 87%

Test system: Serine/threonine-protein kinase B-raf (Homo sapiens), P15056 [V600E]
Sequence (P15056 whole entry V600E): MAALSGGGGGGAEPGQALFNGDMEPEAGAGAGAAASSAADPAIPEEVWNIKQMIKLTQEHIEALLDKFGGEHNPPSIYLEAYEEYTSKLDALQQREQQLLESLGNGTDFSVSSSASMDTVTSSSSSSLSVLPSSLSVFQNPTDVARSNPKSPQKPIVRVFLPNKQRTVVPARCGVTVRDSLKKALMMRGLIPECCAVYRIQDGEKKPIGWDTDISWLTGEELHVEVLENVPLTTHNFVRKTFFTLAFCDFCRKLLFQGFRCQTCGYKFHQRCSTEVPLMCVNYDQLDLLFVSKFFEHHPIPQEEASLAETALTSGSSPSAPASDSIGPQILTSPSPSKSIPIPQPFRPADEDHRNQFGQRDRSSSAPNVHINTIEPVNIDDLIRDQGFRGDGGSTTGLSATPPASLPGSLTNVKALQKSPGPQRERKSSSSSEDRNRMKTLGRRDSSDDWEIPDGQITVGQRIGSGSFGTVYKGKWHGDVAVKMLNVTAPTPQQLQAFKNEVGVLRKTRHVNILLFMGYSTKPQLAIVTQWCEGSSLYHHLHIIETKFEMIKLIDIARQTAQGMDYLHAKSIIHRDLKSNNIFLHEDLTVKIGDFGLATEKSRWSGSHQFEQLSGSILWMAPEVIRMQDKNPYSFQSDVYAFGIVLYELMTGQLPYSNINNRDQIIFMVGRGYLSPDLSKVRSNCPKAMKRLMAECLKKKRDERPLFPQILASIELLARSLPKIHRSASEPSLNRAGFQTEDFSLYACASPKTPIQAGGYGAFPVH
Assay: Inhibition of BRAF V600E mutant (unknown origin) at 10 uM measured after 40 mins by scintillation counting
Conditions: not given

Row | Structure (SMILES) | inhibition
27 | CNC(=O)c1cc(Oc2ccc3nc(NC(=O)Nc4cc(C(F)(F)F)cc(C(F)(F)F)c4)sc3c2)ccn1 | 49.9%

Test system: NCI-H23
Assay: Antiproliferative activity against human NCI-H23 cells assessed as growth inhibition after 48 hrs by sulforhodamine B assay
Type: functional
Conditions: NCI-H23, 48 h

Row | Structure (SMILES) | GI50 | LC50 | TGI
28 | CNC(=O)c1cc(Oc2ccc3nc(NC(=O)Nc4cc(C(F)(F)F)cc(C(F)(F)F)c4)sc3c2)ccn1 | 573 nM | 7990 nM | 2380 nM

Test system: not listed separately
Assay: Antiproliferative activity against human Caki1 cells assessed as growth inhibition after 48 hrs by sulforhodamine B assay
Type: functional
Conditions: CAKI-1, 48 h

Row | Structure (SMILES) | GI50 | TGI
29 | CNC(=O)c1cc(Oc2ccc3nc(NC(=O)Nc4cc(C(F)(F)F)cc(C(F)(F)F)c4)sc3c2)ccn1 | 1150 nM | 2690 nM

Same assay, conditions: CAKI-1, 48 h, read-out: LC50 (the source's name)

Row | Structure (SMILES) | CC50
30 | CNC(=O)c1cc(Oc2ccc3nc(NC(=O)Nc4cc(C(F)(F)F)cc(C(F)(F)F)c4)sc3c2)ccn1 | 6280 nM

Test system: not listed separately
Assay: Antiproliferative activity against human SNB75 cells assessed as growth inhibition after 48 hrs by sulforhodamine B assay
Type: functional
Conditions: SNB-75, 48 h

Row | Structure (SMILES) | GI50 | TGI
31 | CNC(=O)c1cc(Oc2ccc3nc(NC(=O)Nc4cc(C(F)(F)F)cc(C(F)(F)F)c4)sc3c2)ccn1 | 1000 nM | 2700 nM

Same assay, conditions: SNB-75, 48 h, read-out: LC50 (the source's name)

Row | Structure (SMILES) | CC50
32 | CNC(=O)c1cc(Oc2ccc3nc(NC(=O)Nc4cc(C(F)(F)F)cc(C(F)(F)F)c4)sc3c2)ccn1 | 7260 nM

Test system: SK-MEL-2
Assay: Antiproliferative activity against human SK-MEL-2 cells assessed as cell growth at 10^-7 M after 48 hrs by sulforhodamine B assay
Type: functional
Conditions: SK-MEL-2, 48 h, read-out: Activity

Row | Structure (SMILES) | growth at 0.1 µM
33 | CNC(=O)c1cc(Oc2ccc3nc(NC(=O)Nc4cc(C(F)(F)F)cc(C(F)(F)F)c4)sc3c2)ccn1 | 97%

Test system: not listed separately
Assay: Antiproliferative activity against human SNB75 cells assessed as cell growth at 10^-7 M after 48 hrs by sulforhodamine B assay
Type: functional
Conditions: SNB-75, 48 h, read-out: Activity

Row | Structure (SMILES) | growth at 0.1 µM
34 | CNC(=O)c1cc(Oc2ccc3nc(NC(=O)Nc4cc(C(F)(F)F)cc(C(F)(F)F)c4)sc3c2)ccn1 | 82%

Test system: 786-0
Assay: Antiproliferative activity against human 786-0 cells assessed as cell growth at 10^-6 M after 48 hrs by sulforhodamine B assay
Type: functional
Conditions: 786-0, 48 h, read-out: Activity

Row | Structure (SMILES) | growth at 1 µM
35 | CNC(=O)c1cc(Oc2ccc3nc(NC(=O)Nc4cc(C(F)(F)F)cc(C(F)(F)F)c4)sc3c2)ccn1 | 75%
